Source: US20220023306A1, “USE OF A PPAR-DELTA AGONIST IN THE TREATMENT OF FATTY ACID OXIDATION DISORDERS (FAOD)” (Reneo Pharmaceuticals, Inc., priority 2019, published 2022)

Columns and labels:
FXR = molecular target: T1, FXR (Homo sapiens, UniProt Q96RI1); assay: activity on nuclear receptor FXR; type: cell-based
T1 sequence (Q96RI1 1-486): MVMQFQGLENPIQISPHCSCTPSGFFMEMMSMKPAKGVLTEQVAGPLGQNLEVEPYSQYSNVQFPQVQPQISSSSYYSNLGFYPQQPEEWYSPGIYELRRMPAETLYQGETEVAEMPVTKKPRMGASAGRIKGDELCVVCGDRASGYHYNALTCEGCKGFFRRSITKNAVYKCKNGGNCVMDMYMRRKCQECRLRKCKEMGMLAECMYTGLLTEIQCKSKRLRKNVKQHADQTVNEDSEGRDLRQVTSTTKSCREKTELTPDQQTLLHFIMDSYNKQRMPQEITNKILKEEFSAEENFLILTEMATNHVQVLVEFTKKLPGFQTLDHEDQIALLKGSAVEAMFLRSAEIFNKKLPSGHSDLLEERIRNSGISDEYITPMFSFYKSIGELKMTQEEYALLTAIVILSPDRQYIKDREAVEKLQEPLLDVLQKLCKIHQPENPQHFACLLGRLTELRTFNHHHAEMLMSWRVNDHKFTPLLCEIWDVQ

[1] = test system: human retinoid X receptor (hRXR); assay: human retinoid X receptor (hRXR) activity; type: cell-based
rat muscle cell lines = assay: fatty acid oxidation in rat muscle cell lines; type: cell-based
hPPARδ = molecular target: T2, hPPARδ (Homo sapiens, UniProt Q03181); assay: PPAR transient transactivation assay, hPPARδ; type: cell-based
T2 construct: is generated by PCR (PPARδ: aa 128-C-terminus); expressed in transfected cells; host or cells: HEK293
T2 sequence (Q03181 128-441 limits assumed): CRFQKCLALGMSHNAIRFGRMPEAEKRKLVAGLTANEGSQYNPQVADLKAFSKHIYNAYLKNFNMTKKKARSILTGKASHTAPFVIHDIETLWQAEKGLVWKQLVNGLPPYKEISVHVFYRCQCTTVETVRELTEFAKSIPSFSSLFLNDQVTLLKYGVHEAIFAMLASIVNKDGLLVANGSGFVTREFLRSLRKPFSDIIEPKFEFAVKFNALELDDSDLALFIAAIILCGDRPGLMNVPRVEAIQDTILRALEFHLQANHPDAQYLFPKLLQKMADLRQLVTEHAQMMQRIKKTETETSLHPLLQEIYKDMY
Experimental: “Activation” herein is defined as the abovementioned downstream response, which in the case of PPAR's is gene transcription. Gene transcription, in some cases, is measured indirectly as downstream production of proteins reflective of the activation of the particular PPAR subtype under study. Alternatively, an artificial reporter construct, in some cases, is employed to study the activation of the individual PPAR's expressed in cells. The ligand binding domain of the particular receptor to be studied, in some embodiments, is fused to the DNA binding domain of a transcription factor, which produces convenient laboratory readouts, such as the yeast GAL4 transcription factor DNA binding domain. The fusion protein, in some cases, is transfected into a laboratory cell line along with a Gal4 enhancer, which effects the expression of the luciferase protein. When such a system is transfected into a laboratory cell line, binding of a receptor agonist to the fusion protein will result in light emission.
The PPAR transient transactivation assay, in some cases, is based on transient transfection into human HEK293 cells of two plasmids encoding a chimeric test protein and a reporter protein respectively. The chimeric test protein, in some cases, is a fusion of the DNA binding domain (DBD) from the yeast GAL4 transcription factor to the ligand binding domain (LBD) of the human PPAR proteins. The PPAR-LBD moiety harbored in addition to the ligand binding pocket also has the native activation domain, allowing the fusion protein to function as a PPAR ligand dependent transcription factor. The GAL4 DBD will direct the chimeric protein to bind only to Gal4 enhancers (of which none existed in HEK293 cells). The reporter plasmid contained a Gal4 enhancer driving the expression of the firefly luciferase protein. After transfection, HEK293 cells expressed the GAL4-DBD-PPAR-LBD fusion protein. […] The amount of luciferase protein is measured by light emission after addition of the appropriate substrate. […]

human muscle cell lines = assay: fatty acid oxidation in human muscle cell lines; type: cell-based
[2] = test system: PPARδ regulated genes (CPT1b, PGC1α); assay: expression of PPARδ regulated genes in vivo

activity on FXR (FXR): did not show any
hRXR activity [1]: did not show any
type of agonism on PPARδ (hPPARδ): full agonist
selectivity for PPARδ over PPARα (hPPARδ; PPARδ over PPARα, human PPAR subtypes in vitro): at least 100 fold
selectivity for PPARδ over PPARγ (hPPARδ; PPARδ over PPARγ, human PPAR subtypes in vitro): at least 400 fold
SMILES: Cc1cc(OC/C=C(/c2ccc(F)cc2)c2ccc(C#CCN3CCOCC3)cc2)ccc1OCC(=O)O [Compound 1, (E)-[4-[3-(4-Fluorophenyl)-3-[4-[3-(morpholin-4-yl)propynyl]phenyl]allyloxy]-2-methyl-phenoxy]acetic acid]
fatty acid oxidation (rat muscle cell lines): dose-dependent increase
fatty acid oxidation (human muscle cell lines): dose-dependent increase
expression pattern of CPT1b (fatty acid metabolism) [2]: altered the expression patterns
expression pattern of PGC1α (mitochondrial biogenesis) [2]: altered the expression patterns
